What was measured:
Type in all cases: in vivo, rat
[1] = test system: rats with spinal nerve ligature (Chung neuropathic pain model); assay: Chung spinal nerve ligation (L5 and L6) neuropathic pain model, tactile stimulation with electronic Von Frey probe (Example 2); settings: for Force Inducing Paw Withdrawal (g) Lesioned Paw / Force Inducing Paw Withdrawal (g) Non-lesioned Paw: hypersensitivity test after 8 days of twice daily administration
Source text: The Chung neuropathic pain model (Kim and Chung, Pain, 50: 355-363, 1992), employs spinal nerve ligation (SNL) in a rat. Tight ligature of spinal nerves in a rat is associated with hyperalgesia, allodynia and spontaneous pain. Antihyperalgesics reduce these chronic signs of pain hypersensitivity. Thus, the Chung model permits testing of the antihyperalgesic activity of compounds in rats with neuropathic pain. The Chung model constitutes a model for peripheral neuropathic pain in humans, and was employed as follows.
Male Rj: Wistar (Han) rats, weighing 264-369 g at the beginning of the experiment, were obtained from Elevage Janvier, 53940 Le Genest-Saint-Isle, France. The rats were acclimatized to laboratory conditions for at least 5 days before the surgery phase of the experiment. The rats were housed in groups of five in macrolon cages (41×25×14 cm) on wood litter (Litalabo—SPPS, 95100 Argenteuil, France) with free access to food (code 113—SAFE, 91360 Epinay-sur-Orge, France) and water until tested. The animal houses were maintained under artificial lighting (12 hours) between 7:00 AM and 7:00 PM in a controlled ambient temperature of 21±3° C., and with relative humidity maintained at 40-70%.
Rats (264-369 g) were anesthetized with sodium pentobarbital (50 mg/kg i.p.), and an incision at the L4-S2 level was made to expose the left L5 and L6 spinal nerves. A ligature was tied tightly around each nerve. The wound was then sutured. The rats received an i.m. injection of 50,000 IU penicillin G and were allowed to recover. At least 2 weeks after the surgery, when the chronic state was fully installed, rats were submitted consecutively to tactile and thermal stimulation of both the non-lesioned and the lesioned hindpaws.
Doses of OPC-14523 were prepared in stock solutions (weight per volume, W/V), then in dilutions (volume per volume, V/V), as appropriate. The compound was dispersed in 0.5% tragacanth in distilled water. Morphine was dissolved in physiological saline as a reference standard for treatment of pain. The solutions for the test and reference substances were prepared fresh on the day of the experiment.
The vehicle, OPC-14523, and reference (morphine) compound were each administered in a volume of 5 ml/kg body weight. The doses of OPC-14523 were expressed in mg of substance per kg body weight and administered orally (p.o.). The vehicle control was also administered orally. The dose of morphine was expressed in mg of hydrochloride salt per kg body weight and administered i.p.
Each animal was tested at 30 minutes, 1 hour, 2 hours and 4 hours after the administration of a substance. Testing occurred in the morning.
To evaluate chronic drug administration and hypersensitivity induction, animals received a second substance treatment in the afternoon, after acute testing. The animals then received twice-daily substance treatment for an additional 9 days. To test for induction of hypersensitivity, the animals were tested, on the ninth day, 30 minutes before the first substance administration in the morning. The effect of chronic administration was tested on the tenth day 30 minutes, 1 hour, 2 hours and 4 hours after the administration of the substance in the morning.
(§1) For tactile stimulation, the animal was placed under an inverted Plexiglas® box (17×11×14 cm) on a grid floor. The tip of an electronic Von Frey probe (Bioseb, Model 1610, Chaville, France) was applied with increasing pressure to the non-lesioned hindpaw or the lesioned hindpaw. The force required to induce paw withdrawal was automatically recorded. This procedure was carried out three times for each paw, and the mean force per paw was calculated to provide basic scores per animal.
Prior to receiving drug treatment, all animals were submitted to tactile stimulation and assigned to treatment groups, matched on the basis of their pain response. Each treatment group consisted of eight rats. The testing was performed blind. […]

[2] = test system: rats with spinal nerve ligature (Chung neuropathic pain model); assay: Chung neuropathic pain model, tactile stimulation, second experiment (Example 3); settings: acute; for effect on force inducing paw withdrawal: p.o.
Experimental: as §1
(§2) The rats used in this experiment were the same rats used in Example 2. The materials and methods for this experiment were identical to those for Example 2 with the following exceptions: there was a 1-week washout between the two experiments, and the rats weighed 290-403 g at the start of this experiment. Prior to receiving drug treatment, all animals were submitted to tactile stimulation and assigned to treatment groups matched on the basis of their pain response. No account was taken of the treatment administered during the first experiment in assigning animals to treatment groups for this experiment.
(§3) All of the substances were administered orally. Morphine, dissolved in distilled water, was administered at 128 mg/kg dose p.o. Rats were tested 30 minutes, 1 hour, 2 hours, and 4 hours after administration of the substances.

[3] = test system: rats with spinal nerve ligature (Chung neuropathic pain model); assay: Chung neuropathic pain model, cold allodynia on cold plate (Example 3); settings: cold plate
Source text: as §2, §3
Behavioral testing was carried out by measuring cold allodynia using an apparatus consisting of a cold plate maintained at 4±1° C. Rats were individually placed on the cold plate for a period of 5 minutes. The latency to the first paw withdrawal response and the number and total duration of withdrawal responses in 5 minutes were recorded for both the lesioned and the non-lesioned hindpaws.

For COc1cccc2c1CCC(=O)N2CCCN1CCN(c2cccc(Cl)c2)CC1 [OPC-14523, 1-[3-[4-(3-chlorophenyl)-1-piperazinyl]propyl]-5-methoxy-3,4-dihydro-2(1H)-quinolone], the “change of force inducing paw withdrawal vs vehicle” value (“change … vs vehicle” below) ([1]; acute, 100 mg/kg p.o., lesioned paw, 1 hour) was 107%, the “effect on force inducing paw withdrawal” value ([1]; acute, 100 mg/kg p.o., lesioned paw, 2 hours) was “tended to increase” and the “change … vs vehicle” value ([1]; acute, 100 mg/kg p.o., non-lesioned paw, 4 hours, p<0.01) was −27%. The “effect on force inducing paw withdrawal” value ([1]; acute, p.o., other doses or time points) was “no significant effects”, the “effect on force inducing paw withdrawal” value ([1]; chronic, twice daily, after 10 days, p.o., lesioned or non-lesioned paw) was “did not have clear effects” and the “Force Inducing Paw Withdrawal (g) Lesioned Paw” value ([1]; 10 mg/kg p.o.) was 17.6 (NS) g. The “Force Inducing Paw Withdrawal (g) Non-lesioned Paw” value ([1]; 10 mg/kg p.o.) was 72.9 (NS) g, the “Force Inducing Paw Withdrawal (g) Lesioned Paw” value ([1]; 30 mg/kg p.o.) was 15.1 (NS) g and the “Force Inducing Paw Withdrawal (g) Non-lesioned Paw” value ([1]; 30 mg/kg p.o.) was 83.5 (NS) g. The “Force Inducing Paw Withdrawal (g) Lesioned Paw” value ([1]; 100 mg/kg p.o.) was 16.2 (NS) g, the “Force Inducing Paw Withdrawal (g) Non-lesioned Paw” value ([1]; 100 mg/kg p.o.) was 78.1 (NS) g and the “effect on force inducing paw withdrawal vs vehicle control” value ([1]; hypersensitivity test, repeated treatment at three different doses, lesioned or non-lesioned paw) was “no significant effects”. The induction of hypersensitivity ([1]; repeated administration, tactile and thermal stimulation) was “does not induce hypersensitivity”, the “change … vs vehicle” value ([2]; 30 mg/kg p.o., lesioned paw, 30 minutes, p=0.10) was “+46%” and the “change … vs vehicle” value ([2]; 30 mg/kg p.o., lesioned paw, 2 hours, p=0.11) was “+79%”. For the same molecule, the “change … vs vehicle” value ([2]; 100 mg/kg p.o., lesioned paw, 30 minutes, p=0.11) was “+76%”, the “effect on force inducing paw withdrawal” value ([2]; lesioned paw) was “did not significantly affect” and the “effect on force inducing paw withdrawal” value ([2]; non-lesioned paw) was “no clear effects”. For the same molecule, the “decrease of number of withdrawal responses” value ([3]; 30 mg/kg p.o., lesioned paw, 30 minutes, p<0.01) was 50%, the “change of number of withdrawal responses” value ([3]; 30 mg/kg p.o., lesioned paw, 4 hours, p<0.05) was −48% and the “change of total duration of withdrawal responses” value ([3]; 100 mg/kg p.o., 2 hours, p<0.05) was −95%. For the same molecule, the “change of latency to paw withdrawal” value ([3]; 100 mg/kg p.o., lesioned paw, 30 minutes, p<0.01) was “+140%”, the “decrease of number of withdrawal responses” value ([3]; 100 mg/kg p.o., lesioned paw, 30 minutes, p<0.05) was 64% and the “change of latency to paw withdrawal” value ([3]; 100 mg/kg p.o., lesioned paw, 1 hour, p=0.24) was “+183%”.

Reference: patent publication US20070142396A1, “Treatment of pain with 1-[3-[4-(3-chlorophenyl)-1-piperazinyl]propyl]-5-methoxy-3,4-dihydro-2(1H)-quinolone or salt thereof” (Vela Pharmaceuticals, Inc., priority 2005, published 2007)
